Values of other authors, collected in article PMC6269737, “Effect of Honokiol on Cytochrome P450 and UDP-Glucuronosyltransferase Enzyme Activities in Human Liver Microsomes” (Molecules, 2013).

How the values were obtained:
[1] = molecular target: T1, CYP2C8 (Homo sapiens, UniProt P10632); conditions: cited from earlier work
T1 sequence (P10632 1-490): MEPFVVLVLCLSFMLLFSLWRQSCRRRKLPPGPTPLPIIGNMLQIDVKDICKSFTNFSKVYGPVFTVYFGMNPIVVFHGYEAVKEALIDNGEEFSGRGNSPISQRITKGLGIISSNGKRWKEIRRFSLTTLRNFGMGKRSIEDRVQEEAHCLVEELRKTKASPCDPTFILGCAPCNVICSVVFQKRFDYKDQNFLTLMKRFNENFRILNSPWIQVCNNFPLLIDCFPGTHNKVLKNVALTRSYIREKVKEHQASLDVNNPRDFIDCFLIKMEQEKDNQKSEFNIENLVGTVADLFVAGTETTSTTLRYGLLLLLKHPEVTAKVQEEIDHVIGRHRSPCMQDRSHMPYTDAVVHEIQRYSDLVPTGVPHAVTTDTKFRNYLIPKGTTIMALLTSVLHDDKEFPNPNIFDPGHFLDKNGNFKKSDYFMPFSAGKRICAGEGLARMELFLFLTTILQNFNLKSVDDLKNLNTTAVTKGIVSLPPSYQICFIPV

[2] = molecular target: T2, UGT1A9 (Homo sapiens, UniProt O60656); set-up: method as in PMID 21245288; conditions: selective UGT1A9 inhibitor; cited from earlier work
T2 sequence (O60656 26-530): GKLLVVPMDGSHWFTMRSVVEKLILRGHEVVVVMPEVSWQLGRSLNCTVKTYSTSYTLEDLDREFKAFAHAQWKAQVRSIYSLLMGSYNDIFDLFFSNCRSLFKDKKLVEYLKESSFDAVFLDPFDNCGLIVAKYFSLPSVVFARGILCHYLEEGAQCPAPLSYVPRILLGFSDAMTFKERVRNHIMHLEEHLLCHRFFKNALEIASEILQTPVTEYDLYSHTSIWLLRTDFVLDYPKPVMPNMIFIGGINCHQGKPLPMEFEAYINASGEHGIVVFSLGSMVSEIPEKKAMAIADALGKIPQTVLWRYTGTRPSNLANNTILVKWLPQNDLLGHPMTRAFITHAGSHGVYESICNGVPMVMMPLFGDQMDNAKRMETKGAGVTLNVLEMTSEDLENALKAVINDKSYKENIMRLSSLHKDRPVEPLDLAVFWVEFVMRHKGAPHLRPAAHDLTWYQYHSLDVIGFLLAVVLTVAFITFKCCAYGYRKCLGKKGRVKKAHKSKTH

[3] = molecular target: T3, CYP2B6 (Homo sapiens, UniProt P20813); set-up: method as in PMID 23446989; conditions: inhibitory effect towards CYP2B6; cited from earlier work
T3 sequence (P20813 1-491): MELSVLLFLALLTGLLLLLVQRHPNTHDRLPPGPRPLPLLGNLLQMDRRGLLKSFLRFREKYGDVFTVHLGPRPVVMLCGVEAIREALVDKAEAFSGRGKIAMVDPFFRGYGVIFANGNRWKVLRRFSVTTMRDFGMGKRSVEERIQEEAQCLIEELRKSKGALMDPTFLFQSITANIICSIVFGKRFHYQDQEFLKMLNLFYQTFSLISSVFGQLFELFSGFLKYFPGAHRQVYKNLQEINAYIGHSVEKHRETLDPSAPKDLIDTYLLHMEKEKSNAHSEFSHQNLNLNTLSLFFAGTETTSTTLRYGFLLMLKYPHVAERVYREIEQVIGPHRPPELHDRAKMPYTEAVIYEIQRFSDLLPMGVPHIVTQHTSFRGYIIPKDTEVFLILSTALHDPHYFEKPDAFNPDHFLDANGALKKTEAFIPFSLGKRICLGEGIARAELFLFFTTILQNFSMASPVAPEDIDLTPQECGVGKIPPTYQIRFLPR

[4] = molecular target: T4, CYP1A2 (Homo sapiens, UniProt P05177); set-up: method as in PMID 23446989; conditions: inhibitory effect towards CYP1A2; cited from earlier work
T4 sequence (P05177 1-516): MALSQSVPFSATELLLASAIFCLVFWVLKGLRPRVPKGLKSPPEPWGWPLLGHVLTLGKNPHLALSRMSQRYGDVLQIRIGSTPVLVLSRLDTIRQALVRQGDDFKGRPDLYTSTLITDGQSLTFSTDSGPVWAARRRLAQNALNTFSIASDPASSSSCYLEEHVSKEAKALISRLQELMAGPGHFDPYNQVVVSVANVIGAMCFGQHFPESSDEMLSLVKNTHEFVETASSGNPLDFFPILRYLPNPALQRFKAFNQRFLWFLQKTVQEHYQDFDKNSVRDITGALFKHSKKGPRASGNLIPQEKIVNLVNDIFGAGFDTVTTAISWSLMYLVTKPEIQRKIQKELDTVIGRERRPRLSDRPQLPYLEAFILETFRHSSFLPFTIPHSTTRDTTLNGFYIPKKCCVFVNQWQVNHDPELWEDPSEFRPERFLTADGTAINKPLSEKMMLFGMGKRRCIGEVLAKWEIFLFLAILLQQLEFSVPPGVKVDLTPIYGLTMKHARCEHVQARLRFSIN

[5] = molecular target: CYP2C9 (Homo sapiens, UniProt P11712); conditions: inhibitory effect towards CYP2C9; cited from earlier work
Sequence of CYP2C9 (P11712 whole entry): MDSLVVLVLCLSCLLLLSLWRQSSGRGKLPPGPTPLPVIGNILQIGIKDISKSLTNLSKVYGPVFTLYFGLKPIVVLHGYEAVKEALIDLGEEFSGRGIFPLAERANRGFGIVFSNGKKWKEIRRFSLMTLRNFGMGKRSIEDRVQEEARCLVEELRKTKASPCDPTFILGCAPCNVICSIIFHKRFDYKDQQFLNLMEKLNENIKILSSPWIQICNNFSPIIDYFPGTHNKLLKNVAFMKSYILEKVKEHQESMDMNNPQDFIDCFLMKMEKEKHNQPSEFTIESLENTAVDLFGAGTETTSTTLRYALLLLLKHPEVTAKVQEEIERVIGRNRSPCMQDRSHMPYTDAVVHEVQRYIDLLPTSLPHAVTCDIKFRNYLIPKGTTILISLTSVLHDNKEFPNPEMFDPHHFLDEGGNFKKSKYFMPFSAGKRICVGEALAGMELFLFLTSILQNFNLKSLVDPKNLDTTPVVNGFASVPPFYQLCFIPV

[6] = molecular target: CYP2C19 (Homo sapiens, UniProt P33261); set-up: method as in PMID 23446989; conditions: inhibitory effect towards CYP2C19; cited from earlier work
Sequence of CYP2C19 (P33261 whole entry): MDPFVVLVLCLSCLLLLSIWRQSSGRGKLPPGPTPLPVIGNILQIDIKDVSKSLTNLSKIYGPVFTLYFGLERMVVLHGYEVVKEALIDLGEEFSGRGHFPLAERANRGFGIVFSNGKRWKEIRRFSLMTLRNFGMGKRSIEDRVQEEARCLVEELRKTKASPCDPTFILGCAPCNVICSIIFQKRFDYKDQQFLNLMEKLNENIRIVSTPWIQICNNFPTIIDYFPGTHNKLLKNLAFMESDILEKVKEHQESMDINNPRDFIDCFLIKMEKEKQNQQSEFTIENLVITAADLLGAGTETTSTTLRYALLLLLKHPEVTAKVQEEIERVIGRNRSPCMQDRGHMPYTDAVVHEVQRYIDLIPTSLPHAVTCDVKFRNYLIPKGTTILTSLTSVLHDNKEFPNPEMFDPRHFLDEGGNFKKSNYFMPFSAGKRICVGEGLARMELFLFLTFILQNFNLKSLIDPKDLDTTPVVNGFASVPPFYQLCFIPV

SMILES: Cc1ccc(C)c(OCCCC(C)(C)C(=O)O[C@@H]2O[C@H](C(=O)O)[C@@H](O)[C@H](O)[C@H]2O)c1 [gemfibrozil glucuronide]
- Ki ([1]; selective CYP2C8 inhibitor): 20 to 52 µM

SMILES: O=C(O)c1cccnc1Nc1cccc(C(F)(F)F)c1 [niflumic acid]
- Ki [2]: 100 to 400 nM

SMILES: C=CCc1ccc(Oc2cc(CC=C)cc(O)c2O)cc1 [obovatol]
- IC50 [3]: 13.9 µM
- IC50 [4]: 4.4 µM
- IC50 [5]: 3.3 µM
- IC50 ([1]; inhibitory effect towards CYP2C8): 11.1 µM
- IC50 [6]: 800 nM
